The values below come from article PMC9929129, “Towards Translation of PqsR Inverse Agonists: From In Vitro Efficacy Optimization to In Vivo Proof‐of‐Principle” (Advanced Science, 2023).

Where “and” joins values, the source holds several entries; their conditions need not be identical. Equal entries are not always repeated. Entries after “also recorded” stand apart in the source; their conditions may differ. Where two headings read alike, the source gives them in different places.

For orientation: IC50 means the point on the concentration scale where inhibition reaches its midpoint.

In data set [1] the test system is PA14 biofilm. Put plainly: eDNA release assay. Format: cell-based. Particulars: Pseudomonas aeruginosa; PA14, propidium iodine staining. As to the method:
The eDNA release assay was performed as described previously[3] with slight modifications. The impact on eDNA was assessed by incubation of biofilm with propidium iodine solution (0.025 mg mL−1) for 3 h and detection of specific florescence at 620 nm after a thorough washing step with […]
1.2.7 P. aeruginosa clinical isolates from bronchiectasis patients – phenotypic characterization and inhibition of pyocyanin production
Clinical isolates. The P. aeruginosa strains had been isolated from respiratory secretions collected from patients with bronchiectasis seen at the bronchiectasis out-patient clinic of Hannover Medical School. The clinical isolates were genotyped by a custom-made multilocus microarray.[4] The hexadecimal SNP genotype was converted into the multilocus sequence genotype (MLST)[5] by comparison with the sequence of the seven selected housekeeping genes in genome sequences of the same clone deposited in our in-house[6] or the International Pseudomonas Genome Database.[7]

Data set [2] deals with T1, CYP2C19 (Homo sapiens, UniProt P33261).
T1 construct: Cyprotex
T1 sequence (P33261 whole entry): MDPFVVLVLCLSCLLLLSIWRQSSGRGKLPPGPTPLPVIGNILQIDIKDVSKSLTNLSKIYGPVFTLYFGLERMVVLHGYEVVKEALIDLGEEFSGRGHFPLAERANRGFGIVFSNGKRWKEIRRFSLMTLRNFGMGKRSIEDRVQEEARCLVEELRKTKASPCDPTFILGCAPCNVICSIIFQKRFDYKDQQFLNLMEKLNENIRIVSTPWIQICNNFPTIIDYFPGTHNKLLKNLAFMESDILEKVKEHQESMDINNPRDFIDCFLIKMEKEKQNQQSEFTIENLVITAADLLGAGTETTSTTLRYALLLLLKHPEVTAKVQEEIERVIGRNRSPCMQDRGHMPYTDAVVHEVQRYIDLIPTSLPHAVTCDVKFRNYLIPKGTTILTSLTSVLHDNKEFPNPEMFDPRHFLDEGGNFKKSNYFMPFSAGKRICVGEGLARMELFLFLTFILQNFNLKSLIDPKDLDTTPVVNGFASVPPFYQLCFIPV
Put plainly: Cytochrome P450 inhibition assay, CYP2C19. The data set is classed as in vitro ADME. Particulars: Metabolic activity. As to the method:
(§1) 1.4.4 Pharmacokinetic and off-target functional assays (Cyprotex)
(§2) Compound 24 was assayed at Cyprotex in functional assays for interference with important off-targets as well as important pharmacokinetic parameters. With the exception of plasma protein binding, a dose-response relationship was studied in order to calculate IC50 values.
(§3) Table S10. Information on in vitro ADMET assays performed at Cyprotex. […]
(§4) An increase in the number of colonies of at least two-fold over baseline (mean + SD of the vehicle control) and a dose response indicate a positive response. An […]
(§5) different from the vehicle control.
(§6) Where indicated, S9 fraction from the livers of Aroclor 1254-treated rats were included in the incubation at a final concentration of 4.5%. A NADPH-regenerating system was also included to ensure a steady supply of reducing equivalents.

The target in data set [3] is T2, IK (KCa3.1) calcium-activated potassium channel (Homo sapiens, UniProt O15554).
T2 construct: host or cells: CHO cells
The data set is described as follows: Ion channel profiling at Charles River: IK. The data set is classed as cell-based. Conditions: expressed in CHO cells; read-out: ESTIMATED IC50. As to the method: (§7) 1.4.3 Ion Channel Profiling at Charles River
(§8) Table S9. Compound 24 was tested against the following ion channels at Charles River Laboratories. […]
(§9) FASTPatch Assay IK (KCa3.1) calcium-activated potassium channel (human KCNN4 >30 gene) expressed in CHO cells […]
(§10) FLIPR Assay expressed in HEK293 cells
(§11) GABAA α5/β3/γ2 ionotropic receptor (human GABRA5, GABRB3, >30 and GABRG2 genes, expressed in HEK293 cells

For data set [4], the target named is T3, BK (KCa1.1/β1) calcium-activated potassium channel (Homo sapiens, UniProt Q12791).
T3 construct: host or cells: CHO cells
T3 sequence (Q12791 whole entry): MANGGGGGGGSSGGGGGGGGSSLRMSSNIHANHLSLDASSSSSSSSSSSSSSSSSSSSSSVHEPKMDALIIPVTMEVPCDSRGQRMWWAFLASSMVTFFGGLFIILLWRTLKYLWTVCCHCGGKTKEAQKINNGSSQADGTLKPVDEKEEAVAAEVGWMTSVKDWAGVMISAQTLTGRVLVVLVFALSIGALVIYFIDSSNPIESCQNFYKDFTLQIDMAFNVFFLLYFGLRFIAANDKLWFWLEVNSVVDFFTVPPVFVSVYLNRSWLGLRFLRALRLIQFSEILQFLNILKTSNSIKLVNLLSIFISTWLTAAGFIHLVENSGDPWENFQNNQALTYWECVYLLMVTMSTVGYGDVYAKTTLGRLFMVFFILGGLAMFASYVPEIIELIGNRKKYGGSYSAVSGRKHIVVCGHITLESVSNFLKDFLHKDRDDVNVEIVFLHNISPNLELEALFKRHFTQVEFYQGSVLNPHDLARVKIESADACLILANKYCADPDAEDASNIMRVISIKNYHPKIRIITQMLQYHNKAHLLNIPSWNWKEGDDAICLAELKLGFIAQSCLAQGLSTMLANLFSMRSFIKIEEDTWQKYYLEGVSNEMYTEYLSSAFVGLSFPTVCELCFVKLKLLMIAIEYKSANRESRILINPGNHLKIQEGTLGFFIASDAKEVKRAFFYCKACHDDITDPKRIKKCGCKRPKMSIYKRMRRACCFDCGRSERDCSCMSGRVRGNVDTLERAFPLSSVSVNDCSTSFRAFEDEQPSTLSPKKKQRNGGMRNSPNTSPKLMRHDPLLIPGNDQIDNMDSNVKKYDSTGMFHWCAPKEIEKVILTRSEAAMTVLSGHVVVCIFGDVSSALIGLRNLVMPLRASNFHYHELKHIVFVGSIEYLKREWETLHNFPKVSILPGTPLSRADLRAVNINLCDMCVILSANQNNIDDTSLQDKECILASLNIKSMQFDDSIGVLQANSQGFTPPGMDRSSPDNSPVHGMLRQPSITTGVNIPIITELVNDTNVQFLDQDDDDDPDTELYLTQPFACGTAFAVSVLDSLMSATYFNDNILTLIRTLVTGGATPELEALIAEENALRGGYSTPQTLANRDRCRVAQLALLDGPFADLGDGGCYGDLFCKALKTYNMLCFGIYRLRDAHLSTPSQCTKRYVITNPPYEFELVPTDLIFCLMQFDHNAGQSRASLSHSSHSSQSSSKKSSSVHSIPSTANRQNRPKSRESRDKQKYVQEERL
T3 sequence (Q16558 whole entry partner): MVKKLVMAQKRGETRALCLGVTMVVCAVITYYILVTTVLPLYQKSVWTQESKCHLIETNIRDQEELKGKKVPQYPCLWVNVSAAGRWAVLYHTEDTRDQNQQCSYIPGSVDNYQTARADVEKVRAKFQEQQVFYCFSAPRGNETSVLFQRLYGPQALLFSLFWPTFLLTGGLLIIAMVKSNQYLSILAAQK
Put plainly: Ion channel profiling at Charles River: BK. Particulars: expressed in CHO cells; read-out: ESTIMATED IC50. The data set is classed as cell-based. How it is done: as §7, §8
BK (KCa1.1/β1) calcium-activated potassium channel (human >30
KCNMA1 and KCNMB1 genes) expressed in CHO cells
as §9, §10, §11

A short description of data set [5]: Plasma protein binding, murine (equilibrium dialysis). The data set is classed as in vitro ADME, mouse. How it is done: as §1, §2, §3
Plasma protein binding assay (human and Equilibrium dialysis […]
as §4, §5, §6
In general terms: In equilibrium dialysis free small molecules cross a membrane that holds back macromolecules.

In data set [6] the target is T4, HTR2B Human 5-Hydroxytryptamine GPCR (Homo sapiens, UniProt P41595).
T4 construct: 86-0030P-2091AN
T4 sequence (P41595 whole entry): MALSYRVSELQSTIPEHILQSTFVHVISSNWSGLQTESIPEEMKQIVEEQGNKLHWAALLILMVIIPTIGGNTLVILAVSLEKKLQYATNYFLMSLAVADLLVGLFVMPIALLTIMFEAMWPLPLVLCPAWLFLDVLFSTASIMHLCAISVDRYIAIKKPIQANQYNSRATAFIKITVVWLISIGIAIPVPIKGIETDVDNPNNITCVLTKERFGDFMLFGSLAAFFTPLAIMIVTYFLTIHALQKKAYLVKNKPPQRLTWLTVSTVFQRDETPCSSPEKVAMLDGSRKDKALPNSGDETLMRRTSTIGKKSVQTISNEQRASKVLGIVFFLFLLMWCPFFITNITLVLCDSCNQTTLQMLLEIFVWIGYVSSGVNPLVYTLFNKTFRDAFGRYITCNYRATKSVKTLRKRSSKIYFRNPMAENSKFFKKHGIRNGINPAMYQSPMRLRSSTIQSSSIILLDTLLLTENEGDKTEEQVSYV
The data set is described as follows: HTR2B GPCR calcium assay, 86-0030P-2091AG. The data set is classed as cell-based.
Source text: 1.4.2 Further functional off-target assays (Eurofins)
Table S8. Compound 24 was further tested in the following functional assays at Eurofins.
ASSAY NAME ESTIMATED IC50 [µM] […]
as §10
GABAA α5/β3/γ2 ionotropic receptor (human GABRA5, GABRB3, >30
and GABRG2 genes, expressed in HEK293 cells

The test system of data set [7] is Ca2+ channel (L, dihydropyridine site). The data set is described as follows: Cerep panel binding assay. Also on record: species or system rat. Particulars: 10 µM, antagonist radioligand. How it is done: 1.4 Safety Pharmacology of Compound 24
1.4.1 Cerep panel (Eurofins)
Compound 24 was further profiled for its off-target interactions against a panel of 44 targets. The
screening was done by Eurofins Pharma Discovery within the SafetyScreen44 Panel (Cerep, ITEM
P270). In all assays binding/functional inhibition was determined at 10 µM.
Table S6. List of binding assays within the CEREP44 off-target panel and binding data for compound

For data set [8], the system named is Pseudomonas aeruginosa PA14. The data set is described as follows: Pyocyanin assay in Pseudomonas aeruginosa. The data set is classed as cell-based. Conditions: PA14, 16 h, read-out: IC50 Pyocyanin. How it is done:
1.2.2 Pyocyanin assay in Pseudomonas aeruginosa
Inhibition of pyocyanin biosynthesis of compounds was measured spectrophotometrically as previously described.[2] Pseudomonas aeruginosa PA14 was grown in rich medium for 16 h under agitation with and without compound. Pyocyanin was extracted from cultures with chloroform, then re-extracted with 0.2 M HCl and quantified photometrically (520 nm). IC50 values were determined from dose-response curves of compounds using at least six different concentrations and fitting with non-linear regression analysis (OriginPro 2017–2020, Originlab Corporation). […]

In data set [9] the target is T5, hKv1.5 potassium channels (Homo sapiens, UniProt P22460).
T5 construct: host or cells: CHO cells
T5 sequence (P22460 whole entry): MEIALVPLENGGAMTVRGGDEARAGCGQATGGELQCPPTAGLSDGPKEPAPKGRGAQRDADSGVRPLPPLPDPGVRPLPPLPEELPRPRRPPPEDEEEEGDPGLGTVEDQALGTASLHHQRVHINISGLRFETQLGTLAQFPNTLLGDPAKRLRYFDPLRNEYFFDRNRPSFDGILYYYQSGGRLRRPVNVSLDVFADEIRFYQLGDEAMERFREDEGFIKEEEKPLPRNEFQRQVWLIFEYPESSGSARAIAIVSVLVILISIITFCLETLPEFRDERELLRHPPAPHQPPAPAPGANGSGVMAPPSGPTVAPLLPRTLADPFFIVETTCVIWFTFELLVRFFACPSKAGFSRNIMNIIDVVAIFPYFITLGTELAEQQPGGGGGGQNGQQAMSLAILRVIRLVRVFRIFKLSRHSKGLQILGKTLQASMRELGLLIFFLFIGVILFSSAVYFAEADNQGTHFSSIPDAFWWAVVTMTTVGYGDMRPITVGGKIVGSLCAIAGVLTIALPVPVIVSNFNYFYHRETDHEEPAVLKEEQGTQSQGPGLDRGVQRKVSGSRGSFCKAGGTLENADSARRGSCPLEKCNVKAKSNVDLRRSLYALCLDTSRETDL
Put plainly: Ion channel profiling at Charles River: hKv1.5. The data set is classed as cell-based. As to the method: as §7, §8
FASTPatch Assay IK (KCa3.1) calcium-activated potassium channel (human KCNN4 >30 gene) expressed in CHO cells
Cloned hKv1.5 potassium channels (encoded by the human 32.6
KCNA5 gene, expressed in CHO cells) […]
as §10, §11

The subject of data set [10] is P. aeruginosa PAO1. Put plainly: Biofilm-eradication assay with amikacin. Format: cell-based, Pseudomonas aeruginosa. Particulars: 10 × 10^−6 M 24 plus 4 µg/mL amikacin. How it is done: compound, 150 µL 1% DMSO in LB. The inoculator was wrapped with parafilm again and incubated for another 24 h. After that, the peg lid was transferred for 1 min to a 96-well plate containing 200 µL sterile MΩ in each well, followed by another 96 well plate containing 200 µL LB in each well. The system was sealed with parafilm and sonicated for 15 min in an ultrasonic bath with tray.
Immediately after sonication, 20 µL were removed from each well using a multi-channel pipette and diluted 1:10 (stepwise, until 10-6). After each dilution step, 10 µL were directly transferred to cetrimide agar plates (spot plating) using fresh pipette tips. Agar plates were incubated for 16 h at 37 °C and then used for cell counting. Statistical analysis was performed with GraphPad Prism 8.4.1 (GraphPad Software, San Diego, CA) using one-way ANOVA with Tukey’s multiple comparisons test.
Statistical outliers were determined using the Nalimov test, applying a 95% cut-off.
1.2.5 Biofilm-eradication assay
The assay was carried out as described in section 1.2.4, with the following modifications: In the first incubation step only QSI or DMSO (DMSO control and tobramycin control) were added to the wells at time 0. The well plate used for the second incubation step contained QSI/DMSO as before, in presence/absence of tobramycin/amikacin. […]

In data set [11] the target is T6, AhR receptor (Homo sapiens, UniProt P35869).
T6 construct: Cyprotex
T6 sequence (P35869 11-848): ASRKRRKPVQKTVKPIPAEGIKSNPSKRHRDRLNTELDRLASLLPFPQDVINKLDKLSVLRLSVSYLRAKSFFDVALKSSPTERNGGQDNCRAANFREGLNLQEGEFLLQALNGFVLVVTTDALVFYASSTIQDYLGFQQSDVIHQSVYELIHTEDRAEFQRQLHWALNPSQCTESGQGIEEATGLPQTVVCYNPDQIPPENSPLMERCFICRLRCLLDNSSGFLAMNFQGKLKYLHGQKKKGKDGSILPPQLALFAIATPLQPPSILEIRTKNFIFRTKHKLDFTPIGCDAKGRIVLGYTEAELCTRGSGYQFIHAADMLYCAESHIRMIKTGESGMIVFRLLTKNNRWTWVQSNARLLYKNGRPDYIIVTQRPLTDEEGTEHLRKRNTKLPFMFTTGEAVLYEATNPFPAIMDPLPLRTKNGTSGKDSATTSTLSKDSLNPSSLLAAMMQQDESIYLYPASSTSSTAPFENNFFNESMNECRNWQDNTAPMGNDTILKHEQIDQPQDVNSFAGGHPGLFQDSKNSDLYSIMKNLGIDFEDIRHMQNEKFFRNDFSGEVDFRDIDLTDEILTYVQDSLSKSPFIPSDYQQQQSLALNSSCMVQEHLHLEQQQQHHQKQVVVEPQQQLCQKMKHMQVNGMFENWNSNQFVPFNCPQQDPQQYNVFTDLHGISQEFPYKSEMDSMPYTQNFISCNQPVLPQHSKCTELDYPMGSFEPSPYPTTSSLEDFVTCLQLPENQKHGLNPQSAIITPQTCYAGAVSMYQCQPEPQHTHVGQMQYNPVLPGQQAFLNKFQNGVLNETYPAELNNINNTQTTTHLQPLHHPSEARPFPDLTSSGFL
Put plainly: AhR nuclear receptor activation, luciferase reporter gene assay. The data set is classed as cell-based. As to the method:
as §1, §2, §3, §4, §5, §6

Consider `CC(C)Oc1ccc(-c2ncc(CNc3ccnc(C(F)(F)F)c3)cn2)cc1Cl` [Compound 24], for which the IC50 in data set [1] was 0.346 µM; in data set [2], more than 25 µM; in data set [3], more than 30 µM; in data set [4], more than 30 µM; in data set [6], more than 10 µM; in data set [8] it was 0.245 ± 0.04 µM. For the same molecule, the IC50 in data set [9] (expressed in CHO cells, read-out: ESTIMATED IC50) is 32.6 µM; in data set [9] (read-out: hKv1.5 functional inhibition IC50) it was approximately 30 µM. In data set [5], this molecule returned a Plasma binding murine of more than 99%. Moreover, the “BINDING (%)” value in data set [7] is 75.3% and > 50%. In data set [10], the “Effect on amikacin activity against PAO1 biofilm” value was “significant boost in activity; also recorded: boosted”. In addition, in data set [11] (fold activation @1 × 10^−6 M), the “fold AhR receptor induction” value is reported as 0.91 @1 × 10^−6 M ^a). Further, the AhR induction entry in [11] (up to 25 × 10^−6 M) is given as “Neither AhR induction”.
